What all share (type): biochemical
The target of one experiment is PKR R510Q (Homo sapiens, UniProt P30613, R510Q). Kind of experiment: PKR Mutant Assay, AC50 against PKR R510Q. The settings on record: mutant PKR R510Q enzyme. Here is the method: (§1) • PKR or PKR mutant enzyme solution was diluted in assay buffer. • 2 μL of test compound was added into wells first, and then 180 μL reaction mix was added. • Reactions mixture with test compound was assembled except for ADP, and plates were stored for 60 minutes at room temperature. • 20 uL ADP was added to start reaction at room temperature and reaction progress was measured as changes in absorbance at 340 nm wavelength at room temperature.
PKR R510Q, sequence (P30613 whole entry R510Q): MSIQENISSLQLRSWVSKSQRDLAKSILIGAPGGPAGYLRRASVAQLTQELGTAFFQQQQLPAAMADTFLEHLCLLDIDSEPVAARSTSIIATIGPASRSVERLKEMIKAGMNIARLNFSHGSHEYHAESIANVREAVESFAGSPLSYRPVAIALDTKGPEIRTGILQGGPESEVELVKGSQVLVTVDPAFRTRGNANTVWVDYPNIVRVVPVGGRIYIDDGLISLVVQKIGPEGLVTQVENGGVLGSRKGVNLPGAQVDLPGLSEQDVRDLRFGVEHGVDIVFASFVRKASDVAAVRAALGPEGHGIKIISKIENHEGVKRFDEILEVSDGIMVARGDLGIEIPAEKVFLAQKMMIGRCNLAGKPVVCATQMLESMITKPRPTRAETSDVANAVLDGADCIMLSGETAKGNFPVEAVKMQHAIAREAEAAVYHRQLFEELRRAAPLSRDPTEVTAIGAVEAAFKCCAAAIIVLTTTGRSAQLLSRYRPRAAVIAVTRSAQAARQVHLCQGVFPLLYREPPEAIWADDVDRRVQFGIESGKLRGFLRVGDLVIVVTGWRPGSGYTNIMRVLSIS
(§2) Test Compound Preparation: • Test compound stock was made at 100× concentration in 100% DMSO (10 mM) • 1 to 3 dilutions were made for 11 points (i.e. 50 μl of first concentration added to 100 μl 100% DMSO to yield 3.33 mM, 50 μl of this added to 100 μl DMSO to yield 1.11 mM, and so forth) • 1 to 100 dilution into assay (2 μl in 200 μl) yielded starting concentration of 100 μM, decreasing 3 fold for 11 points. Assay Buffer: 100 mM KCl, 50 mM Tris 7.5, 5 mM MgCl2, 1 mM DTT, 0.03% BSA Reaction Mixture: PKR mutant enzyme: 80-400 ng/well; ADP: 0.22-1.65 mM; PEP: 0.1-0.5 mM; NADH: 180 uM; LDH: 0.5 units (Sigma#59023); DTT: 1 mM; BSA: 0.03%.

The next experiment addresses PKR R532W (Homo sapiens, UniProt P30613, R532W). The experiment is described as follows: PKR Mutant Assay, AC50 against PKR R532W. The settings on record: mutant PKR R532W enzyme. Here is the method: as §1, §2
A further experiment addresses PKR WT (Homo sapiens, UniProt P30613). The experiment is described as follows: PKR WT enzymatic AC50 assay. The settings on record: wild type PKR. Here is the method: as §1, §2

The source of these data is US9108921B2, “Therapeutic compounds and compositions” (AGIOS PHARMACEUTICALS, INC, priority 2014, dated 2015).

Usually AC50 stands for the midpoint of the concentration-response curve, whichever way the signal moves. Read a high AC50 as activity only at high concentration.

PKR R532W, sequence (P30613 whole entry R532W): as the sequence (P30613 whole entry R510Q) above, with Q510R, R532W counted along it
PKR WT, sequence (P30613 whole entry): as the sequence (P30613 whole entry R510Q) above, with Q510R counted along it

Consider `O=C(c1ccc(NS(=O)(=O)c2cccc3ccnnc23)cc1)N1CCC(O)(c2ccccc2Cl)CC1` [Compound 313], for which the AC50 at PKR R510Q is over 10 µM; at PKR R532W, over 10 µM; on PKR WT it was 1.01 to 10 µM.
As for `Cc1cccc(C2(O)CCN(C(=O)c3ccc(NS(=O)(=O)c4cccc5cccnc45)cc3)CC2)n1` [Compound 265, N-[4-[4-hydroxy-4-(6-methylpyridin-2-yl)piperidine-1-carbonyl]phenyl]quinoline-8-sulfonamide], the AC50 is 1.01 to 10 µM on PKR R510Q, 0.101 to 1 µM on PKR R532W and 0.101 to 1 µM on PKR WT.
Consider `O=C(c1ncc(NS(=O)(=O)c2cccc3cccnc23)cn1)N1CCC(O)(c2ccccc2)CC1` [Compound 323], for which, on PKR WT, the AC50 was over 10 µM.
Regarding `CC(C)CC1(O)CCN(C(=O)c2ccc(NS(=O)(=O)c3cccc4[nH]c(=O)cnc34)cc2)CC1` [Compound 438], the AC50 at PKR R510Q, at PKR R532W and at PKR WT was 1.01 to 10 µM each time.
On to `O=C(c1c(F)cc(NS(=O)(=O)c2cccc3cccnc23)cc1F)N1CCC(O)(c2ccccc2Cl)CC1` [Compound 232, N-(4-(4-(2-chlorophenyl)-4-hydroxypiperidine-1-carbonyl)-3,5-difluorophenyl)quinoline-8-sulfonamide], for which the concentration at half-maximal activity (AC50) on PKR R510Q, at PKR R532W and on PKR WT was 0.101 to 1 µM throughout.
On to `CC(C)CC1(O)CCN(C(=O)c2ccc(NS(=O)(=O)c3ccc(F)c(N)c3N)cc2)CC1` [Compound 254, 2,3-diamino-4-fluoro-N-(4-(4-hydroxy-4-isobutylpiperidine-1-carbonyl)phenyl)benzenesulfonamide], for which the concentration at half-maximal activity (AC50) at PKR R510Q, at PKR R532W and at PKR WT was 0.101 to 1 µM throughout.
Regarding `CNc1nc2c(S(=O)(=O)Nc3ccc(C(=O)N4CCC(O)(c5ccccc5Cl)CC4)cc3)cccc2s1` [Compound 409], the AC50 at PKR R510Q, at PKR R532W and at PKR WT was under 0.1 µM in each case.
As for `CC(C)CC1(O)CCN(C(=O)c2ccc(NS(=O)(=O)Cc3ccccn3)cc2)CC1` [Compound 324], the concentration at half-maximal activity (AC50) at PKR R510Q, on PKR R532W and at PKR WT was over 10 µM throughout.
Consider `CC(C)CC1(O)CCN(C(=O)c2ccc(NS(=O)(=O)c3cc(F)cc4scnc34)cc2)CC1` [Compound 202, 6-fluoro-N-(4-(4-hydroxy-4-isobutylpiperidine-1-carbonyl)phenyl)benzo[d]thiazole-4-sulfonamide], for which the AC50 at PKR R510Q is 0.101 to 1 µM; on PKR R532W, under 0.1 µM; on PKR WT it was under 0.1 µM.
As for `O=C(c1ccc(NS(=O)(=O)c2cccc3cccnc23)cc1)N1CCC(O)(c2cccc3c2OCCO3)CC1` [Compound 284], the AC50 on PKR R510Q is 1.01 to 10 µM; at PKR R532W, 0.101 to 1 µM; on PKR WT it was 0.101 to 1 µM.
Take `CC(C)CC1(O)CCN(C(=O)c2ccc(NS(=O)(=O)c3cccc4cncnc34)cc2)CC1` [Compound 441]: the AC50 at PKR R510Q was in the range of 1.01 to 10 µM; on PKR R532W, 0.101 to 1 µM.
In the case of `O=C(c1ccc(NS(=O)(=O)c2cccc3cccnc23)c(OC(F)(F)F)c1)N1CCC(O)(c2ccccc2Cl)CC1` [Compound 270], the values for the concentration at half-maximal activity (AC50) at PKR R510Q, at PKR R532W and at PKR WT were 1.01 to 10 µM, 0.101 to 1 µM and 0.101 to 1 µM, respectively.
`CC1(O)CCN(C(=O)c2ccc(NS(=O)(=O)c3cccc4cccnc34)cc2)CC1` [Compound 296]: the AC50 on PKR R510Q was over 10 µM; at PKR R532W, 1.01 to 10 µM; on PKR WT, 1.01 to 10 µM.
With `CC(C)CC1(CO)CCN(C(=O)c2ccc(NS(=O)(=O)c3cccc4scnc34)cc2)CC1` [Compound 216, N-(4-(4-(hydroxymethyl)-4-isobutylpiperidine-1-carbonyl)phenyl)benzo[d]thiazole-4-sulfonamide], the results for the AC50 at PKR R510Q, at PKR R532W and on PKR WT were 0.101 to 1 µM, under 0.1 µM and under 0.1 µM, respectively.
Regarding `CCC1(O)CCN(C(=O)c2ccc(NS(=O)(=O)c3cccc4cccnc34)cc2)CC1` [Compound 267], the half-maximal activity concentration (AC50) is 1.01 to 10 µM on PKR R510Q, 0.101 to 1 µM at PKR R532W and 0.101 to 1 µM at PKR WT.
On to `CC(C)CC1(O)CCN(C(=O)c2ccc(NS(=O)(=O)c3csc4cccnc34)cc2)CC1` [Compound 269], for which the AC50 at PKR R510Q lay in the range of 1.01 to 10 µM; at PKR R532W, 0.101 to 1 µM; at PKR WT it was 0.101 to 1 µM.
For `O=C(c1ccc(NS(=O)(=O)c2cccc3cnccc23)cc1)N1CCC(O)(Cc2ccccc2)CC1` [Compound 283], the concentration at half-maximal activity (AC50) on PKR R510Q was 1.01 to 10 µM; on PKR R532W, 0.101 to 1 µM; on PKR WT, 0.101 to 1 µM.
`CCOC(=O)C1(Cc2ccccc2)CCN(C(=O)c2ccc(NS(=O)(=O)c3cccc4cccnc34)cc2)CC1` [Compound 330]: the values for the AC50 at PKR R510Q and at PKR R532W were 1.01 to 10 µM and 0.101 to 1 µM, respectively.
In the case of `O=C(c1ccc(NS(=O)(=O)c2cccc3nonc23)cc1)N1CCC(O)(Cc2ccccc2)CC1` [Compound 310], the AC50 at PKR R532W and on PKR WT was 1.01 to 10 µM each time.
As to `O=C(c1ccc(NS(=O)(=O)c2ccc(Cl)cc2)cc1)N1CCC(O)(Cc2ccccc2)CC1` [Compound 299], the AC50 at PKR WT fell in the range of 1.01 to 10 µM.
In the case of `O=C(c1ccc(NS(=O)(=O)c2cccnc2)cc1)N1CCC(O)(Cc2ccccc2)CC1` [Compound 315], the AC50 on PKR R532W is over 10 µM; at PKR WT, 1.01 to 10 µM.
The like results for `O=C(c1ccc(NS(=O)(=O)c2cccc3cnccc23)cc1)N1CCC(O)(c2ccccc2)CC1` [Compound 319] were, in that order, over 10 µM and over 10 µM.
The like results for `O=C(c1ccc(NS(=O)(=O)c2ccc(C(F)(F)F)cc2)cc1)N1CCC(O)(Cc2ccccc2)CC1` [Compound 321] were, in that order, over 10 µM and over 10 µM.
For `CC(F)(F)CCC1(O)CCN(C(=O)c2ccc(NS(=O)(=O)c3cccc4scnc34)cc2)CC1` [Compound 440], the AC50 at PKR R510Q and at PKR R532W was 0.101 to 1 µM in each case.
For the compound `CC(C)CC1(O)CCN(C(=O)c2ccc(NS(=O)(=O)c3cccc4snnc34)cc2)CC1` [Compound 419], the AC50 at PKR R532W and at PKR WT was over 10 µM in each case.
Turning to `O=C(c1ccc(NS(=O)(=O)c2cccc(C(F)(F)F)c2)cc1)N1CCC(O)(Cc2ccccc2)CC1` [Compound 287], the AC50 on PKR R532W lay in the range of 1.01 to 10 µM; on PKR WT, 0.101 to 1 µM.
For the compound `N#Cc1cccc(S(=O)(=O)Nc2ccc(C(=O)N3CCC(O)(Cc4ccccc4)CC3)cc2)c1` [Compound 317], the AC50 on PKR WT was over 10 µM.
For `CC(C)CC1(O)CCN(C(=O)c2ccc(NS(=O)(=O)c3cnc(O)c4cccnc34)cc2)CC1` [Compound 416], the values for the AC50 at PKR R532W and on PKR WT were over 10 µM and 1.01 to 10 µM, respectively.
The like results for `O=C(c1ccc(NS(=O)(=O)c2cccc(Cl)c2)cc1)N1CCC(O)(Cc2ccccc2)CC1` [Compound 281] were, in that order, 0.101 to 1 µM and 0.101 to 1 µM.
The like results for `CN(C)CC1(O)CCN(C(=O)c2ccc(NS(=O)(=O)c3cccc4cccnc34)cc2)CC1` [Compound 301] were, in that order, 1.01 to 10 µM and 1.01 to 10 µM.
Regarding `O=C(c1ccc(NS(=O)(=O)c2ccc3c(c2)OCO3)cc1)N1CCC(O)(Cc2ccccc2)CC1` [Compound 288], the figures for the AC50 on PKR R532W and at PKR WT were 1.01 to 10 µM and 0.101 to 1 µM, respectively.
As to `O=C(c1ccc(NS(=O)(=O)c2cccc3cccnc23)cc1)N1CCC(O)(CN2CCCC2)CC1` [Compound 327], the AC50 on PKR R532W was 1.01 to 10 µM.
